Laboratory results taken from US20140072654A1, “CANCER WITH METABOLIC THERAPY AND HYPERBARIC OXYGEN” (priority 2011, published 2014).
Entries after “also recorded” stand apart in the source; their conditions may differ.

Legend:
[1] = Blood ketones and glucose after oral gavage in rats; type: in vivo, rat; conditions: for blood BHB level (words): vs control water
Experimental: Whole blood samples (10 μl) were acquired for analysis of glucose and BHB utilizing a commercially available glucose/ketone monitoring system (Nova Max® Plus) at time 0, 30, 60, 120, 180 and 240 min. In addition, heparinized blood samples (200 μl) were collected into Eppendorf tubes at time 0, 30, 60, 120, 180 and 240 min. Samples were processed for the detection and quantification of BHB, AcAc, and acetone. Briefly, samples were chilled on ice for 30 s, centrifuged in a micro-centrifuge (13,000 G) for 3-5 min and plasma (>100 μl), treated with reducing reagent of cold 0.2M sodium borodeuteride (NaBD4; Sigma, 205591, CAS 15681-89-7) dissolved in 0.1M NaOH (8.4 mg NaBD4 in 1 ml of 0.1M NaOH) and then immediately frozen on dry ice before storing at −80° C. Acetone was analyzed at the 60 minute time point, which was the predicted peak of blood AcAc levels (Desrochers et al. 1995). 300 μl of whole blood were collected in addition to the above collections, stabilized with cold 0.2M NaBD4, and then immediately frozen on dry ice. Samples were stored at −80° C. until analyzed for ketones. Internal standards of [^2H6]BHB or [^2H8]isopropanol were added to the treated plasma or blood samples (50 μl or 15 μl) and the BHB, AcAc (as M+1 of BHB) or acetone (as 2-propanol) metabolites were analyzed by gas chromatography-mass spectrometry (GC-MS) using an Agilent 5973 mass spectrometer, linked to a 6890 gas chromatograph equipped with an autosampler. Briefly, GC-MS conditions were either EI or CI mode (electron or chemical ionization mode); the samples were detected by selected ion monitoring as the BHB- and AcAc-trimethylsilyl derivatives (EI) or the derivative of acetone-pentafluorobenzoyl (CI).
KE and BD. […] Blood was collected and processed as described in the previous example.
Ketone measurements were taken at 30, 60, 120, 180 and 240 minutes. Blood plasma was treated with sodium borodeuteride (NaB2H4) to stabilize ketone concentration and then assayed by GC-MS. The rapid rise relating to blood ketones from BD-AcAc2 is due primarily from rapid desterfication in blood and tissues.

[2] = system: VM-M3/Fluc tumors; experiment: Tumor bioluminescence in VM-M3/Fluc mice; type: in vivo, mouse
[3] = system: rats exposed to hyperbaric oxygen (5 ATA O2); experiment: CNS oxygen toxicity: latency to seizure (EEG) in rats in hyperbaric oxygen; type: in vivo, rat; conditions: for effect on latency to seizure / CNS-OT (words): 5 ATA O2, ~3 ml (~10 g/kg) gavage 30 min before HBO2
From the text: Hyperbaric Chamber HBO2 system consisted of two main elements: 1) a plexiglass chamber (˜3 liter capacity, Diamond Box, Buxco, Electronics Inc., model PLY3114), that housed the rat during the experiment, and 2) a hyperbaric chamber (Reimers System Inc.—7.8 ATA MWP), that contained the plexiglass chamber and functioned as the pressure vessel. Both chambers were connected to an air compressor (oil-less rotary scroll compressor—model DK6086, Powerex).
During each experiment (hyperbaric hyperoxia), both the main chamber and the animal chamber were filled with air (dive profile). Rats were placed into the plexiglass chamber and allowed ten minutes to acclimate, at which time the plexiglass chamber was flushed with 100% 02. The animal was then allowed 15 minutes to acclimate before both chambers were compressed to 5 ATA (58.8 PSIG) at a rate of 0.7 ATA/min. The outer chamber was pressurized using air (capacity ˜205 liters) to minimize the risk of an electrical-induced fire. Each experiment was visually monitored via a live camera. LS was calculated from the moment at which the internal and the external chambers reached 5 ATA until the onset of convulsions, identified as high-amplitude, high frequency spikes lasting 10 to 30 sec, followed by polyspikes and wave formation concurrent with tonic-clonic motions of forelimbs and head. After the onset of seizures, the plexiglass chamber was flushed with air to quickly terminate seizure, and both chambers decompressed to sea level. Decompression rate was 1 ATA/min. Rats were then allowed a 15 min recovery period in air at 1 ATA before being removed from the chamber.
The radiotelemetry system consisted of an implantable 4ET radio-transmitter able to amplify and broadcast signals via a receiver (DSI PhysioTel, model RPC-2) connected to an acquisition interface unit (ACQ 7700 Ponemah) via electrical penetrations in the wall of the hyperbaric chamber. The acquisition interface unit was connected to a computer for real time data collection and storage. The same acquisition unit also recorded chamber pressure and temperature, which were measured, respectively, by […] directly connected to the acquisition system via BNC (Bayonet Neill-Concelman) cables.
Anticonvulsant effect of supplemental ketones was tested in rats exposed to hyperbaric oxygen (5 ATA O2). The effects of ketone esters (KEs) in preventing CNS-OT in rats were assessed before, during and after HBO2 exposure by measuring various parameters.
Adult male Sprague-Dawley rats (n=60) rats (300-450 grams; 3 to 6 month old) were obtained from Harlan, anesthetized in 3-5% isoflurane (in 02) and implanted with a 4ET radio-transmitter (Data Sciences International, DSI) using sterile surgical technique. The rat chamber was ventilated with pure O2 while the hyperbaric chamber, containing the radio-receiver (DSI), was pressurized in parallel with air to 5 atmospheres absolute (ATA). One pair of leads (positive and negative poles) was implanted in the costal diaphragm at the junction with the abdominal wall for diaphragmatic electromyogram (dEMG) signals, one pair of electrodes was inserted in the pectoral muscle to acquire electrocardiogram (ECG) data, and two pairs of wires were embedded in the skull between Bregma and Lambda, with one lead on either side of midline for each pair (EEG recordings). The EMG wires were not inserted into crural diaphragmatic muscle because of the high risk of pneumothorax due to the thinness of the muscle (419 to 630 μm). 4ET radio-transmitters also monitored core body temperature and physical activity. Rats were weighed immediately before surgery and subsequently once every 7 days, just prior to the weekly exposures to HBO2. After surgery, every animal recovered for ≧1 week. The rats were food (not water) deprived for 18 hours prior to the start of the experiment.
In each case animals were gavaged about 30 minutes prior to diving. […]

[4] = Acute ketosis with supplementation in healthy VM/Dk mice (blood glucose, blood βHB, urine AcAc after feeding); type: in vivo, mouse
Experimental: FIG. 34(A)-(C) are graphs showing effect of ketone supplementation on blood glucose, blood βHB, urine AcAc, and body weight in mice. (A-C) blood glucose; (B) blood levels of ketones; and (C) urine AcAc of healthy VM/Dk mice 0-12 hours after feeding following 8 hour fast. […] Error bars represent ±SEM.

[5] = system: VM-M3 metastatic cancer; experiment: Survival time in VM-M3 mouse model of metastatic cancer; type: in vivo
[6] = rats

C[C@H](O)CCO [BD, R,S-1,3-butanediol, reference compound]
blood BHB ([1]; single oral administration ~10 g/kg): > 5 mM | blood AcAc level ([1]; ~10 g/kg gavage): only modest elevation in AcAc relative to KE; also recorded: low or undetectable | blood acetone level ([1]; ~10 g/kg gavage, 60 minutes): low or undetectable | effect on blood glucose ([1]; ~10 g/kg gavage, over 4 hrs, relative to water): no significant effect on blood glucose levels | blood BHB level (words) ([1]; ~10 g/kg gavage): significant increase in BHB | blood BHB level (words) ([1]; ~10 g/kg gavage, listed as 1,3-butanediol): elevated blood levels of B-hydroxybutyrate | tumor growth / bioluminescence ([2]; VM-M3 mice vs controls): profound effect | whole body tumor bioluminescence (ROI), representative animal ([2]; day 21 after tumor cell inoculation): 1.739×10^6 | effect on latency to seizure / CNS-OT (words) ([3]; rats): did not delay CNS-OT; also recorded: did not increase LS | effect on latency to seizure / CNS-OT (words) ([3]; rats, listed as 1,3-BD): lack of efficacy | effect on latency to seizure / CNS-OT (words) ([3]; rats, listed as 1,3-butanediol): no effect on seizure latency | time after feeding to significant βHB elevation ([4]; after 8 hour fast): 1 h | ketone bodies elevated, βHB and AcAc ([4]; blood βHB and urine AcAc): only elevated βHB | time for which blood glucose was significantly lowered ([4]; standard chow with ketone supplementation after 8 hour fast): 8 h | increase in mean survival time ([5]; Example 5, compared to controls): approximately 16 days | % increase in survival time ([5]; Example 5, vs control (SD)): 51% | blood pH change, mild nonpathological acidosis (FIG. 25) [6]: from 7.45 to 7.35 | decrease of blood pH compared to control after about 30 minutes ([6]; control pH ~7.5, mean): 0.05 | decrease of blood pH compared to control after about one hour ([6]; control pH ~7.5, mean): 0.1

CC(=O)CC(=O)OCCC(C)O (centres unmarked) [BD-AcAc, R,S-1,3-butanediol acetoacetate monoester]
latency time to seizure, individual rat (EEG) ([3]; 5 ATA O2 (60 PSI), same rat 8 minutes without ketone ester): 110 min | effect on latency to seizure / CNS-OT (words) ([3]; rats): significantly increased the latency time to seizure | effect on latency to seizure / CNS-OT (words) ([3]; rats, listed as 1,3-BD AcAc monoester): delays CNS-OT | increase in latency to seizure (LS) compared to control ([3]; rats, 5 ATA O2, ~10 g/kg intragastric 30 min before dive, control water): 285%

(R)-1,3-butanediol ester [BHB ester, reference compound]
blood BHB level (words) ([1]; ~10 g/kg gavage): elevated blood levels of B-hydroxybutyrate | effect on latency to seizure / CNS-OT (words) ([3]; rats, listed as 1,3-BD BHB ester): lack of efficacy | effect on latency to seizure / CNS-OT (words) ([3]; rats, listed as B-hydroxybutyrate ester): no effect on seizure latency
